From publication PMC8933014, “Diversely substituted sulfamides for fragment-based drug discovery of carbonic anhydrase inhibitors: synthesis and inhibitory profile” (Journal of Enzyme Inhibition and Medicinal Chemistry, 2022)
Where a name gives a salt, the structure may show the parent alone.

Tests used:
Experiment in all cases: stopped-flow CO2 hydration
Assay type in all cases: biochemical
hCA XII = biological target: T1, hCA XII (Homo sapiens, UniProt O43570); conditions: read-out: Ki (nM)^b / hCA XII
T1 construct: gene CA12; recombinant, obtained in-house
T1 sequence (O43570 25-354): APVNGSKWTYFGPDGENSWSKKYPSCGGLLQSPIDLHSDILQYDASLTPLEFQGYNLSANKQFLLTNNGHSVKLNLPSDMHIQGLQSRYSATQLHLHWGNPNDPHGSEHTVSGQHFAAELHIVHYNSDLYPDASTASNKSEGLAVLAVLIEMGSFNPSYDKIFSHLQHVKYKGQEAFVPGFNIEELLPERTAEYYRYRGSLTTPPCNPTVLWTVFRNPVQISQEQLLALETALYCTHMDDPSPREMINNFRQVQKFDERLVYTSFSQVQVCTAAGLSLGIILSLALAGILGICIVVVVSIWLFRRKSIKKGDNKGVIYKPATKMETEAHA
From the text: stopped-flow CO2 hydration on hCA XII

hCA IX = biological target: T2, hCA IX (Homo sapiens, UniProt Q16790); conditions: read-out: Ki (nM)^b / hCA IX
T2 construct: gene CA9; recombinant, obtained in-house
From the text: stopped-flow CO2 hydration on hCA IX

hCA I = biological target: T3, hCA I (Homo sapiens, UniProt P00915); conditions: read-out: Ki (nM)^b / hCA I
T3 construct: gene CA1; recombinant, obtained in-house
T3 sequence (P00915 2-261): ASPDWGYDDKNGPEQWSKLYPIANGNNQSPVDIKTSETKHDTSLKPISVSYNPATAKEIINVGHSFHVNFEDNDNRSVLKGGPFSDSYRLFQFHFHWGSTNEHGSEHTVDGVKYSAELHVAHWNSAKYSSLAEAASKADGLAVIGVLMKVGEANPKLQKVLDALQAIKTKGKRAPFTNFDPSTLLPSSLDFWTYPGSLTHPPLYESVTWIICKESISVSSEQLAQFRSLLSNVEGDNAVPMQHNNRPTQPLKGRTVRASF
From the text: stopped-flow CO2 hydration on hCA I

hCA II = biological target: T4, hCA II (Homo sapiens, UniProt P00918); conditions: read-out: Ki (nM)^b / hCA II
T4 construct: gene CA2; recombinant, obtained in-house
From the text: stopped-flow CO2 hydration on hCA II

Row | Structure (SMILES) | Ki (hCA XII) | Ki (hCA IX) | Ki (hCA I) | Ki (hCA II)
1 | NS(=O)(=O)N1CCC(O)CC1 [2a, 4-Hydroxypiperidine-1-sulphonamide] | 25.3 nM | 54.2 nM | 75.6 nM | 42.7 nM
2 | CN1CCN(S(N)(=O)=O)CC1 [2b, 4-Methylpiperazine-1-sulphonamide] | 52.5 nM | 58.6 nM | 64.2 nM | 32.1 nM
3 | NS(=O)(=O)NCc1ccc(F)cc1 [2c, N-(4-Fluorobenzyl)sulfamide] | 51.7 nM | 30.7 nM | 126 nM | 70.5 nM
4 | NS(=O)(=O)NC1CCCc2ccccc21 (centres unmarked) [2d, N-(1,2,3,4-Tetrahydronaphthalen-1-yl)sulfamide] | 59.7 nM | 36.8 nM | 121 nM | 42.6 nM
5 | NS(=O)(=O)NCC1CCCO1 (centres unmarked) [2e, N-((tetrahydrofuran-2-yl)methyl)sulfamide] | 98 nM | 92.7 nM | 38.4 nM | 63.4 nM
6 | COC(=O)C1CCCN1S(N)(=O)=O (centres unmarked) [2f, Methyl sulfamoylprolinate] | 83.6 nM | 78.2 nM | 52.1 nM | 69.8 nM
7 | CN1CCC(NS(N)(=O)=O)CC1 [2g, (1-Methylpiperidin-4-yl)sulfamide] | 38.4 nM | 63.2 nM | 89.7 nM | 52.1 nM
8 | NS(=O)(=O)N1CCC(c2ccccc2)CC1 [2h, 4-Phenylpiperidine-1-sulphonamide] | 96.7 nM | 58.2 nM | 359 nM | 120 nM
9 | CN(C)CCN(Cc1ccccc1)S(N)(=O)=O [2i, Benzyl (2-(dimethylamino)ethyl)sulfamide] | 19.7 nM | 65.1 nM | 28.4 nM | 39.8 nM
10 | NS(=O)(=O)NCc1cccnc1 [2j, (Pyridin-3-ylmethyl)sulfamide] | 16.5 nM | 29.5 nM | 98.5 nM | 90.2 nM
11 | NS(=O)(=O)NCc1cccs1 [2k, (Thiophen-2-ylmethyl) sulfamide] | 66.8 nM | 73.2 nM | 22.6 nM | 48.2 nM
12 | CCN(CC)CCN(C)S(N)(=O)=O [2l, (2-(Diethylamino)ethyl)(methyl)sulfamide] | 72.5 nM | 126 nM | 59.6 nM | 92.3 nM

Next, values leading:

Row | Ki (hCA XII) | Ki (hCA IX) | Ki (hCA I) | Ki (hCA II) | Structure (SMILES)
13 | 25.9 nM | 58.1 nM | 62.8 nM | 42.8 nM | CCOC(=O)C1CCN(S(N)(=O)=O)CC1 [2m, Ethyl 1-sulfamoylpiperidine-4-carboxylate]
14 | 35.1 nM | 72.5 nM | 497 nM | 99.3 nM | NS(=O)(=O)N1CCC(N2CCCCC2)CC1 [2n, [1,4'-Bipiperidine]-1'-sulphonamide]
15 | 101 nM | 82.1 nM | 59.2 nM | 66.9 nM | NS(=O)(=O)N1CCOCC1 [2o, Morpholine-4-sulphonamide]
16 | 40.2 nM | 46.2 nM | 88.2 nM | 59.4 nM | NC(=O)C1CCN(S(N)(=O)=O)CC1 [2p, 1-Sulfamoylpiperidine-4-carboxamide]
17 | 100 nM | 78.2 nM | 68.9 nM | 52.9 nM | NS(=O)(=O)N1CCNCC1 [2q, Piperazine-1-sulphonamide hydrochloride]
18 | 116 nM | 94.7 nM | 868 nM | 316 nM | CC1Cc2ccccc2N1S(N)(=O)=O (centres unmarked) [2r, 2-Methylindoline-1-sulphonamide]
19 | 39.3 nM | 68 nM | 29.6 nM | 59.4 nM | NS(=O)(=O)Nc1ncccn1 [2s, N-(Pyrimidin-2-yl)sulfamide]
20 | 114 nM | 34.2 nM | 231 nM | 89.5 nM | NS(=O)(=O)N1CCCc2ccccc21 [2t, 3,4-Dihydroquinoline-1(2H)-sulphonamide]
21 | 72.3 nM | 25.4 nM | 160 nM | 56.7 nM | NS(=O)(=O)Nc1cccc2ccccc12 [2u, N-(Naphthalen-1-yl)sulfamide]
22 | 95.7 nM | 102 nM | 723 nM | 472 nM | NS(=O)(=O)N1CCc2ccccc21 [2v, Indoline-1-sulphonamide]
23 | 224 nM | 38.5 nM | 45.7 nM | 76.3 nM | NS(=O)(=O)Nc1ccc(F)cc1F [2w, N-(2,4-Difluorophenyl)sulfamide]
